# Test system: PBMC
# Assay: 193 ssRNA 4mer-motif library screen: IL-12 (IL-12p40) production in PBMC of six donors, poly-L-Arg complexation, ELISA at 44 hours, IL-12 index and adjusted IL-12 index
# Format: cell-based, human
# Design: key to Adjusted IL-12 index Mean: IL-12 index (ratio to 9.2sense) minus donor mean, averaged over 6 donors
# Conditions: 193 ssRNA oligonucleotide library; data from six individual donors summarized; ascending order
# Protocol: FIG. 9: PBMC of six different healthy donors were isolated and stimulated with poly-L-arginine complexed ssRNA oligonucleotides in duplicates. 44 hours after stimulation IL-12p40 production was assessed in supernatant via ELISA. For all tested ssRNA oligonucleotides (table 3), the mean values of the measured duplicates were normalized to the positive control ssRNA oligonucleotide 9.2sense (5′-AGCUUAACCUGUCCUUCAA (SEQ ID NO: 194)) by dividing the mean value of tested oligonucleotide by the mean value of 9.2sense (=IL-12 index of a given oligonucleotide). Next, all individual IL-12 indices were adjusted to the mean value of all IL-12 indices by subtracting the mean value of all IL-12 indices from the individual IL-12 index of a given oligonucleotide (=adjusted IL-12 index). Data from six individual donors were summarized and were assorted in ascending order displaying the corresponding SEM (for a complete listing including numerical data see table 4). FIG. 9A discloses SEQ ID NOS 460-509, respectively, in order of appearance. FIG. 9B discloses SEQ ID NOS 510-559, respectively, in order of appearance. FIG. 9C discloses SEQ ID NOS 560-609, respectively, in order of appearance. FIG. 9D discloses SEQ ID NOS 610-652, respectively, in order of appearance.
# All 193 ssRNA oligonucleotides were tested on PBMC of six individual healthy donors using poly-L-Arg for complexation. At 44 hours after stimulation with RNA oligonucleotides, supernatants were collected and IL-12 production was measured by ELISA. Prior to statistical analysis the raw data were processed as follows: for each cell culture plate the mean IL-12 value of the experimental duplicates for each tested ssRNA oligonucleotide were normalized to the ssRNA oligonucleotide RNA9.2sense (5′-AGCUUAACCUGUCCUUCAA-3′ (SEQ ID NO: 194)). This standard RNA oligonucleotide was included as a positive control on all cell culture plates. Normalization was performed by calculating the ratio of IL-12 induced by the tested oligonucleotide and IL-12 induced by the standard oligonucleotide RNA9.2sense. Thus, for each tested oligonucleotide in an individual donor a mean ratio of IL-12 induction was obtained. In the following, this mean of the ratios is referred to as IL-12 index (one value of IL-12 index per donor). […] The corresponding IL-12 index of oligonucleotide ANP175 for donor 3 was calculated to be 1.90 (=1725 pg/ml divided by 908 pg/ml).
# Next, the means of all IL-12 indices for every individual donor were calculated. Then the adjusted IL-12 indices were calculated as IL-12 index minus the mean of all IL-12 indices of one individual donor. […] The adjusted IL-12 index of ANP175 was calculated: 1.90 minus 0.44=1.46. The adjusted IL-12 indices from all six donors were summarized by calculating the means and the corresponding standard error of mean. The data are depicted in ascending order (FIG. 9A, B, C, D). The adjusted IL-12 indices of the top thirty ssRNA oligonucleotides of all six donors were compared using a two-tailed Student's t-test (FIG. 10). For most combinations tested, a significant difference was observed when the interval between the analyzed pairs was at least eight or nine places in the assortment.
row,Substance,Adjusted IL-12 index Mean
1,"AAAAAAAACCGAAAAAAAA (RNA, backbone not given here) [ANP-Oligo 018]",−0.68
2,"AAAAAAACGUCAAAAAAAA (RNA, backbone not given here) [ANP-Oligo 083]",−0.27
3,"AAAAAAAACGUAAAAAAAA (RNA, backbone not given here) [ANP-Oligo 022]",0.02
4,"AAAAAAAAUACAAAAAAAA (RNA, backbone not given here) [ANP-Oligo 038]",−0.32
5,"AAAAAAACUCGAAAAAAAA (RNA, backbone not given here) [ANP-Oligo 090]",−0.54
6,"AAAAAAAGCCUAAAAAAAA (RNA, backbone not given here) [ANP-Oligo 115]",0.15
7,"AAAAAAAGGUUAAAAAAAA (RNA, backbone not given here) [ANP-Oligo 133]",1.51
8,"AAAAAAAUUGGAAAAAAAA (RNA, backbone not given here) [ANP-Oligo 189]",0.66
9,"AAAAAAAUUCUAAAAAAAA (RNA, backbone not given here) [ANP-Oligo 187]",0.18
10,"AAAAAAACGCUAAAAAAAA (RNA, backbone not given here) [ANP-Oligo 079]",−0.09
11,"AAAAAAAACCUAAAAAAAA (RNA, backbone not given here) [ANP-Oligo 019]",−0.51
12,"AAAAAAACAUCAAAAAAAA (RNA, backbone not given here) [ANP-Oligo 059]",−0.48
13,"AAAAAAACGAUAAAAAAAA (RNA, backbone not given here) [ANP-Oligo 076]",0.02
14,"AAAAAAAAGUCAAAAAAAA (RNA, backbone not given here) [ANP-Oligo 035]",−0.22
15,"AAAAAAAUAAGAAAAAAAA (RNA, backbone not given here) [ANP-Oligo 147]",0.27
16,"AAAAAAACAAUAAAAAAAA (RNA, backbone not given here) [ANP-Oligo 052]",−0.37
17,"AAAAAAACCCCAAAAAAAA (RNA, backbone not given here) [ANP-Oligo 065]",−0.59
18,"AAAAAAAGCCGAAAAAAAA (RNA, backbone not given here) [ANP-Oligo 114]",−0.58
19,"AAAAAAAGUGCAAAAAAAA (RNA, backbone not given here) [ANP-Oligo 140]",0.99
20,"AAAAAAAUAGGAAAAAAAA (RNA, backbone not given here) [ANP-Oligo 153]",0.42

row,Substance,Adjusted IL-12 index Mean
1,"AAAAAAAAGAGAAAAAAAA (RNA, backbone not given here) [ANP-Oligo 027]",−0.62
2,"AAAAAAACAACAAAAAAAA (RNA, backbone not given here) [ANP-Oligo 050]",−0.64
3,"AAAAAAAGCAGAAAAAAAA (RNA, backbone not given here) [ANP-Oligo 111]",−0.32
4,"AAAAAAAACGAAAAAAAAA (RNA, backbone not given here) [ANP-Oligo 006]",−0.63
5,"AAAAAAAGAGUAAAAAAAA (RNA, backbone not given here) [ANP-Oligo 106]",0.21
6,"AAAAAAAUCCUAAAAAAAA (RNA, backbone not given here) [ANP-Oligo 163]",−0.15
7,"AAAAAAAGGCCAAAAAAAA (RNA, backbone not given here) [ANP-Oligo 125]",−0.54
8,"AAAAAAAUCAGAAAAAAAA (RNA, backbone not given here) [ANP-Oligo 159]",−0.28
9,"AAAAAAAGUUGAAAAAAAA (RNA, backbone not given here) [ANP-Oligo 144]",4.39
10,"AAAAAAAGCUCAAAAAAAA (RNA, backbone not given here) [ANP-Oligo 119]",−0.48
11,"AAAAAAACCCUAAAAAAAA (RNA, backbone not given here) [ANP-Oligo 067]",−0.3
12,"AAAAAAAACGGAAAAAAAA (RNA, backbone not given here) [ANP-Oligo 021]",−0.63
13,"AAAAAAAUAUGAAAAAAAA (RNA, backbone not given here) [ANP-Oligo 156]",0.27
14,"AAAAAAACGCGAAAAAAAA (RNA, backbone not given here) [ANP-Oligo 078]",−0.59
15,"AAAAAAAUUCCAAAAAAAA (RNA, backbone not given here) [ANP-Oligo 185]",−0.08
16,"AAAAAAAGGUGAAAAAAAA (RNA, backbone not given here) [ANP-Oligo 132]",0.47
17,"AAAAAAAUUAGAAAAAAAA (RNA, backbone not given here) [ANP-Oligo 183]",0.27
18,"AAAAAAACACUAAAAAAAA (RNA, backbone not given here) [ANP-Oligo 055]",−0.53
19,"AAAAAAAAUCCAAAAAAAA (RNA, backbone not given here) [ANP-Oligo 041]",−0.48
20,"AAAAAAAGCUGAAAAAAAA (RNA, backbone not given here) [ANP-Oligo 120]",−0.38

row,Substance,Adjusted IL-12 index Mean
1,"AAAAAAACUGGAAAAAAAA (RNA, backbone not given here) [ANP-Oligo 093]",−0.31
2,"AAAAAAAGAUCAAAAAAAA (RNA, backbone not given here) [ANP-Oligo 107]",−0.2
3,"AAAAAAACUGUAAAAAAAA (RNA, backbone not given here) [ANP-Oligo 094]",0.9
4,"AAAAAAAGUGUAAAAAAAA (RNA, backbone not given here) [ANP-Oligo 142]",1.23
5,"AAAAAAAAUCAAAAAAAAA (RNA, backbone not given here) [ANP-Oligo 011]",−0.43
6,"AAAAAAAAUGUAAAAAAAA (RNA, backbone not given here) [ANP-Oligo 046]",0.97
7,"AAAAAAACCGCAAAAA4AA (DNA AAAAAAACCGCAAAAAAAA; RNA, backbone not given here) [ANP-Oligo 068]",−0.56
8,"AAAAAAAAGGCAAAAAAAA (RNA, backbone not given here) [ANP-Oligo 032]",−0.62
9,"AAAAAAACAUGAAAAAAAA (RNA, backbone not given here) [ANP-Oligo 060]",−0.46
10,"AAAAAAAGUUUAAAAAAAA (RNA, backbone not given here) [ANP-Oligo 145]",1.32
11,"AAAAAAAACUCAAAAAAAA (RNA, backbone not given here) [ANP-Oligo 023]",−0.41
12,"AAAAAAACUUUAAAAAAAA (RNA, backbone not given here) [ANP-Oligo 097]",−0.1
13,"AAAAAAAUAGCAAAAAAAA (RNA, backbone not given here) [ANP-Oligo 152]",0.35
14,"AAAAAAAAUAAAAAAAAAA (RNA, backbone not given here) [ANP-Oligo 004]",−0.4
15,"AAAAAAAUAGUAAAAAAAA (RNA, backbone not given here) [ANP-Oligo 154]",1.57
16,"AAAAAAACCUCAAAAAAAA (RNA, backbone not given here) [ANP-Oligo 071]",−0.56
17,"AAAAAAAGAUUAAAAAAAA (RNA, backbone not given here) [ANP-Oligo 109]",0.22
18,"AAAAAAAGACUAAAAAAAA (RNA, backbone not given here) [ANP-Oligo 103]",−0.25

# Same assay, conditions: summarized from all six donors
row,Substance,adjusted IL-12 index
1,"AAAAAAAUAGUAAAAAAAA (RNA, backbone not given here) [ANP-Oligo 154]",1.57

# — patent US8815503B2, “Compositions and methods for immunostimulatory RNA oligonucleotides” (Rheinische Friedrich-Wilhelms-Universitat Bonn, priority 2005, dated 2014)
